This assay has as its target T1, MC-4 receptor (Homo sapiens, UniProt P32245).
T1 construct: expressed in transfected cells; host or cells: HEK 293 cells (G418 selected)
As to the kind of experiment: Agonist assay: cAMP response in HEK 293 cells transfected with the MC-4 receptor (Biotrak-cAMP SPA). The assay is classed as cell-based. As to conditions: HEK 293 cells transfected with MC-4 receptor, cAMP increase; read-out: EC50 for MC4-R agonist activity. The method, then:
Description: HEK 293 cells transfected with either the MC-4 receptor or MC-1 receptor were grown in 96 well plates. The cells were stimulated with either 100 nM NDP-αMSH or screening compounds. Cyclic AMP was extracted from the cells and concentrations were determined using a Biotrak-cAMP SPA assay. Agonists were identified as those compounds causing an increase in cAMP.
Cell Culture: HEK 293 cells transfected with either the MC-4 receptor or MC-1 receptor were cultured in 75 cm^2 flasks in D-MEM supplemented with 10% FCS and 500 μg/ml G418. Cells were trypsinized and split 1:3 into 96 well flat-bottom tissue culture treated plates. Cells were stimulated at confluence (day 2-4).
cAMP Response: Compounds serially diluted in 100% DMSO were further diluted 1:200 (2.5 μl compound dilution +500 μl media) in D-MEM containing 10% FBS and 0.1 mM IBMX. For unstimulated cells, 2.5 μl of DMSO was added to 500 μl of media. For NDP-αMSH stimulated cells, 2.5 μl of 20μM NDP-αMSH in 100% DMSO was added to 500μl of media (final conc. 100 nM). Final concentration of DMSO in all wells was 0.5%.
Note: Each sample was run in duplicate on separate plates. […]
cAMP Assay: The extracted samples and all reagents included in the kit were brought to room temperature. […] [125I ]cAMP binding to the SPA beads was determined by counting each plate for 2 minutes on a Packard TopCount™. […]

Each structure is given as a SMILES string. Bridge positions count the residues as written; N and C are the ends. Square brackets hold non-standard residues; d marks the D form. Peptide text beside a SMILES is read from it. * marks the point of attachment. ξ: configuration not given here. Ac6c(4-Ph-cis-to-N) = N[C@]1(C(=O)O)CC[C@H](c2ccccc2)CC1; Pentanoyl = CCCCC(=O)*; ξK = NCCCCC(N)C(=O)O

T1 sequence (P32245 whole entry): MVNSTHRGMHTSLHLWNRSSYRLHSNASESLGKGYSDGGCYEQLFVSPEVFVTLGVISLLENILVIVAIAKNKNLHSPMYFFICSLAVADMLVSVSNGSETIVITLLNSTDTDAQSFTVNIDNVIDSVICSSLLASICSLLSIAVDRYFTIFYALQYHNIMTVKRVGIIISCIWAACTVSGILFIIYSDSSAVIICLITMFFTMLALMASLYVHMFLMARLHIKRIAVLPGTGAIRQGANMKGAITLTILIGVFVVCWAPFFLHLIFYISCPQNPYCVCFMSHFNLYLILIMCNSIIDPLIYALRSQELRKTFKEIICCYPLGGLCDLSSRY

With `CCCCC(=O)N[C@H]1CC(=O)NCCCCC(C(N)=O)NC(=O)[C@H](Cc2c[nH]c3ccccc23)NC(=O)[C@H](C)NC(=O)[C@@H](Cc2ccccc2)NC(=O)[C@]2(CC[C@H](c3ccccc3)CC2)NC1=O` (stereo partly drawn) [Penta-cyclo(Asp-Lys)-Asp-Apc-(D)Phe-Ala-Trp-Lys-NH2] (Pentanoyl-D[Ac6c(4-Ph-cis-to-N)][dF]AW[ξK]-NH2; lactam 1-6), the EC50 (in general, the concentration giving half of the maximal effect) is less than 500 nM.
